For 15 compounds, IC50 results are on record in patent US9273057B2 (Bristol-Myers Squibb Company, priority 2012, dated 2016).

The test deals with CK2A1 (CK2α/β) (Homo sapiens, UniProt P68400). In words: CK2 kinase assay, CK2A1 (CK2α/β). Format: biochemical. The note with it: Table A; read-out: CK2A1 (CK2α/β) (IC50).
Chain of CK2A1 (CK2α/β) (P68400 whole entry, species assumed): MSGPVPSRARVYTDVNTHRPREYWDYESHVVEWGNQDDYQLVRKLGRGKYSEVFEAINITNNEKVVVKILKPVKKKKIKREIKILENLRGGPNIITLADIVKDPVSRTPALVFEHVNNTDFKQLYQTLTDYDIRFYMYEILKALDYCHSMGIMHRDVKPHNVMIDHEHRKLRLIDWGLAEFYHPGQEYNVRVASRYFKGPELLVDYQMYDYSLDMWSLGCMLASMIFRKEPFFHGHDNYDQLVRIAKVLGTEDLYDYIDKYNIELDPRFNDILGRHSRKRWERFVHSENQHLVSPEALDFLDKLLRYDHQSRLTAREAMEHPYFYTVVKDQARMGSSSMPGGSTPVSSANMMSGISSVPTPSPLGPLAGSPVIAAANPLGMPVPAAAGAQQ
Chain of CK2A1 (CK2α/β) (P67870 whole entry partner, species assumed): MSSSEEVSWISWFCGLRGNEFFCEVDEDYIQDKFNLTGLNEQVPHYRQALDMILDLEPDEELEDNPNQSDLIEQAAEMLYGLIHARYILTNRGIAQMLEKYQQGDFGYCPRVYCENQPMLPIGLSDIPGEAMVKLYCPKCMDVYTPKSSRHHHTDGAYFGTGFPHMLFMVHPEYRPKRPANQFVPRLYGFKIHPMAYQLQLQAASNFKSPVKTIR
In the case of `CCNc1nc(Nc2ccc3c(c2)c(C#N)cn3C2CCN([C@H]3COC[C@@H]3O)CC2)nn2c(C#N)cnc12` [Example 827, 2-((3-cyano-1-(1-((3S,4R)-4-hydroxytetrahydrofuran-3-yl)piperidin-4-yl)-1H-indol-5-yl)amino)-4-(ethylamino)imidazo[2,1-f][1,2,4]triazine-7-carbonitrile], the IC50 was found to be 0.75 nM.

Consider `CCNc1nc(Nc2ccc3c(c2)c(C#N)cn3C2CCN([C@H]3CS(=O)(=O)C[C@@H]3O)CC2)nn2c(C#N)cnc12` [Example 828, 2-((3-cyano-1-(1-((3R,4R)-4-hydroxy-1,1-dioxidotetrahydrothiophen-3-yl)piperidin-4-yl)-1H-indol-5-yl)amino)-4-(ethylamino)imidazo[2,1-f][1,2,4]triazine-7-carbonitrile], for which the IC50 was 0.36 nM.

With `CCNc1nc(Nc2ccc3c(c2)c(C#N)cn3C2CCN([C@H]3CS(=O)(=O)C[C@H]3O)CC2)nn2c(C#N)cnc12` [Example 829, 2-((3-cyano-1-(1-((3R,4S)-4-hydroxy-1,1-dioxidotetrahydrothiophen-3-yl)piperidin-4-yl)-1H-indol-5-yl)amino)-4-(ethylamino)imidazo[2,1-f][1,2,4]triazine-7-carbonitrile], the IC50 amounted to 0.72 nM.

For the compound `CCNc1nc(Nc2ccc3c(c2)c(C#N)cn3C2CCN(C[C@@H](O)CN3CCOCC3)CC2)nn2c(C#N)cnc12` [Example 830, (R)-2-((3-cyano-1-(1-(2-hydroxy-3-morpholinopropyl)piperidin-4-yl)-1H-indol-5-yl)amino)-4-(ethylamino)imidazo[2,1-f][1,2,4]triazine-7-carbonitrile], the IC50 is 0.35 nM.

On to `CCNc1nc(Nc2ccc3c(c2)c(C#N)cn3C2CCN(C3CN(C(=O)OC(C)(C)C)C3)CC2)nn2c(C#N)cnc12` [Example 831, tert-butyl 3-(4-(3-cyano-5-((7-cyano-4-(ethylamino)imidazo[2,1-f][1,2,4]triazin-2-yl)amino)-1H-indol-1-yl)piperidin-1-yl)azetidine-1-carboxylate], for which the IC50 worked out at 0.71 nM.

With `CCNc1nc(Nc2ccc3c(c2)c(C#N)cn3C2CCN(C3CNC3)CC2)nn2c(C#N)cnc12` [Example 832, 2-((1-(1-(azetidin-3-yl)piperidin-4-yl)-3-cyano-1H-indol-5-yl)amino)-4-(ethylamino)imidazo[2,1-f][1,2,4]triazine-7-carbonitrile], the IC50 came to 0.54 nM.

In the case of `CCNc1nc(Nc2ccc3c(c2)c(C#N)cn3C2CCN(C3CN(C[C@@H](C)O)C3)CC2)nn2c(C#N)cnc12` [Example 833, (R)-2-((3-cyano-1-(1-(1-(2-hydroxypropyl)azetidin-3-yl)piperidin-4-yl)-1H-indol-5-yl)amino)-4-(ethylamino)imidazo[2,1-f][1,2,4]triazine-7-carbonitrile], the IC50 is 1.81 nM.

`CCNc1nc(Nc2ccc3c(c2)c(C#N)cn3C2CCN(C3CN(C[C@H](C)O)C3)CC2)nn2c(C#N)cnc12` [Example 834, (S)-2-((3-cyano-1-(1-(1-(2-hydroxypropyl)azetidin-3-yl)piperidin-4-yl)-1H-indol-5-yl)amino)-4-(ethylamino)imidazo[2,1-f][1,2,4]triazine-7-carbonitrile]: the IC50 came out at 0.6 nM.

On to `CCNc1nc(Nc2ccc3c(c2)c(C#N)cn3C2CCN(C3CN(C4COC4)C3)CC2)nn2c(C#N)cnc12` [Example 835, 2-((3-cyano-1-(1-(1-(oxetan-3-yl)azetidin-3-yl)piperidin-4-yl)-1H-indol-5-yl)amino)-4-(ethylamino)imidazo[2,1-f][1,2,4]triazine-7-carbonitrile], for which the IC50 was found to be 0.98 nM.

For `CCNc1nc(Nc2ccc3c(c2)c(C#N)cn3C2CCN(C3CN(C(=O)OC)C3)CC2)nn2c(C#N)cnc12` [Example 836, methyl 3-(4-(3-cyano-5-((7-cyano-4-(ethylamino)imidazo[2,1-f][1,2,4]triazin-2-yl)amino)-1H-indol-1-yl)piperidin-1-yl)azetidine-1-carboxylate], the IC50 came to 1.44 nM.

`CCNc1nc(Nc2ccc3c(c2)c(C#N)cn3C2CCN(C3CN(C(C)=O)C3)CC2)nn2c(C#N)cnc12` [Example 837, 2-((1-(1-(1-acetylazetidin-3-yl)piperidin-4-yl)-3-cyano-1H-indol-5-yl)amino)-4-(ethylamino)imidazo[2,1-f][1,2,4]triazine-7-carbonitrile]: the IC50 amounted to 2.42 nM.

On to `CCNc1nc(Nc2cc(C#N)cc(N3CC[C@@H]4[C@@H](C3)OC(=O)N4C3COC3)c2Cl)nn2c(C#N)cnc12` [Example 839, 2-((2-chloro-5-cyano-3-((3aR,7aR)-1-(oxetan-3-yl)-2-oxohexahydrooxazolo[5,4-c]pyridin-5(2H)-yl)phenyl)amino)-4-(ethylamino)imidazo[2,1-f][1,2,4]triazine-7-carbonitrile], for which the IC50 is 1.19 nM.

Take `CCNc1nc(Nc2cc(C#N)cc(N3CC[C@H]4[C@H](C3)OC(=O)N4C3COC3)c2Cl)nn2c(C#N)cnc12` [Example 840, 2-((2-chloro-5-cyano-3-((3aS,7aS)-1-(oxetan-3-yl)-2-oxohexahydrooxazolo[5,4-c]pyridin-5(2H)-yl)phenyl)amino)-4-(ethylamino)imidazo[2,1-f][1,2,4]triazine-7-carbonitrile]: the IC50 was 1.74 nM.

As to `CCNc1nc(Nc2cc(C#N)cc(N3CC[C@@H]4[C@@H](C3)OC(=O)N4C3CCOCC3)c2Cl)nn2c(C#N)cnc12` [Example 845], the IC50 was determined as 0.92 nM.

Consider `CCNc1nc(Nc2cc(C#N)cc(N[C@@H]3CCN(C(=O)OC)C[C@H]3O)c2Cl)nn2c(C#N)cnc12` [Example 846, (3R,4R)-methyl 4-((2-chloro-5-cyano-3-((7-cyano-4-(ethylamino)imidazo[2,1-f][1,2,4]triazin-2-yl)amino)phenyl)amino)-3-hydroxypiperidine-1-carboxylate], for which the IC50 was 17.3 nM.
